Test systems include SK-MEL-5 melanoma; MALME-3M melanoma; NCI-H23 lung; SF-539 CNS; SR leukemia; SK-MEL-2 melanoma; PC-3 prostate; SK-MEL-28 melanoma; HCT-116 colon; HS 578T breast.
Holding throughout (assay): inhibition of tumour cell growth, NCI panel, 48 h

Values joined by “and” are separate entries in the source; they are usually repeats but may differ in a detail not shown here. Equal values may be shown once.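 Cultured in 96-well plates, cells were exposed to test compound for 48 hours across five concentrations. Abbreviation: GI50, concentration required for 50% inhibition of growth. Definition used: TGI = concentration required for complete inhibition of growth.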 Where only a bound is given, the exact number is not on record here.

As for `Cc1nc2sc(C(=O)Nc3cccc(Cl)c3C)c(N)c2cc1C(O)c1ccccc1` (configuration not stated), the GI50 was 0.0528 µM in the assay on SK-MEL-5 melanoma; 0.0536 µM in the assay on MALME-3M melanoma; 0.0634 µM in the assay with NCI-H23 lung; 0.0253 µM in the assay on SF-539 CNS; 0.021 µM in the assay on SR leukemia; 0.0754 µM with SK-MEL-2 melanoma. Moreover, the GI50 in the assay on PC-3 prostate was 0.0439 µM; in the assay with SK-MEL-28 melanoma, 1.6 µM; in the assay on HCT-116 colon, 0.0404 µM; in the assay on HS 578T breast it was 0.0239 µM. In addition, the TGI in the assay on SK-MEL-5 melanoma was found to be 1.11 µM; in the assay on MALME-3M melanoma it was 18.5 µM; with NCI-H23 lung it was 12.9 µM; in the assay with SF-539 CNS it was 0.0805 µM; in the assay with SR leukemia it was 16.6 µM; in the assay on SK-MEL-2 melanoma, 12.6 µM. The TGI with PC-3 prostate turned out to be 24.4 µM; in the assay with SK-MEL-28 melanoma it was 23.1 µM; in the assay with HCT-116 colon, 10.9 µM; in the assay on HS 578T breast, 0.497 µM.
Turning to `COC(=O)[C@]12CC[C@@H](C)[C@H](C)[C@@H]1C1=CC[C@@H]3[C@@]4(C)C(C=O)=C[C@@](C)(COC(=O)c5ccco5)C4=CC[C@@]3(C)[C@]1(C)CC2`, the GI50 was 0.189 µM with SK-MEL-5 melanoma; 0.0383 µM in the assay on MALME-3M melanoma; 3.25 µM in the assay with NCI-H23 lung; 2.57 µM in the assay with SF-539 CNS; 2.12 µM with SR leukemia; 0.273 µM in the assay on SK-MEL-2 melanoma. The GI50 is 2.97 µM in the assay on PC-3 prostate, 0.053 µM in the assay with SK-MEL-28 melanoma, 2.2 µM in the assay with HCT-116 colon and 3.72 µM in the assay with HS 578T breast. The TGI was determined as 1.17 µM with SK-MEL-5 melanoma; 0.444 µM in the assay on MALME-3M melanoma; 25.7 µM in the assay with NCI-H23 lung; 6.94 µM in the assay on SF-539 CNS; 6.66 µM with SR leukemia; 0.743 µM with SK-MEL-2 melanoma. For the same compound, the TGI with PC-3 prostate is more than 100 µM; with SK-MEL-28 melanoma it was 3.01 µM; with HCT-116 colon, 6.47 µM; in the assay with HS 578T breast, 34.1 µM.
Consider `COC(=O)C(Br)(C(=O)OC)C(Br)C(Br)C(Br)c1ccccc1` (configuration not stated), for which the GI50 with SK-MEL-5 melanoma was 2.71 µM; in the assay with MALME-3M melanoma, 2.09 µM; in the assay on NCI-H23 lung, 5.78 µM; in the assay on SF-539 CNS, 1.81 µM; in the assay on SR leukemia, 2.8 µM; in the assay on SK-MEL-2 melanoma, 14.4 µM. In addition, the GI50 in the assay with PC-3 prostate is 4.58 µM; in the assay with SK-MEL-28 melanoma it was 2.12 µM; in the assay on HCT-116 colon it was 1.61 µM; in the assay with HS 578T breast, 6.25 µM. The TGI in the assay with SK-MEL-5 melanoma was determined as 7.27 µM; with MALME-3M melanoma, 4.46 µM; in the assay with NCI-H23 lung it was 13.9 µM; in the assay on SF-539 CNS, 4.09 µM; in the assay with SR leukemia, 9.71 µM; with SK-MEL-2 melanoma it was 27.8 µM. The TGI in the assay with PC-3 prostate was determined as 17.3 µM; with SK-MEL-28 melanoma it was 4.99 µM; in the assay on HCT-116 colon it was 3.01 µM; with HS 578T breast, 15 µM.
On to `CCN1Cc2c(/C=C/c3ccccc3)nc3ccc(OC)cc3c2N(c2cccc(Cl)c2)C1`, for which the GI50 with SK-MEL-5 melanoma was 1.59 µM; in the assay with MALME-3M melanoma, 1.68 µM; in the assay on NCI-H23 lung, 1.67 µM; in the assay with SF-539 CNS, 1.98 µM; in the assay with SR leukemia, 1.71 µM; in the assay with SK-MEL-2 melanoma, 1.72 µM. Moreover, the GI50 in the assay with PC-3 prostate is 1.79 µM; in the assay with SK-MEL-28 melanoma it was 1.78 µM; in the assay on HCT-116 colon, 1.67 µM; in the assay on HS 578T breast, 1.75 µM. The TGI in the assay with SK-MEL-5 melanoma is 3 µM; in the assay with MALME-3M melanoma it was 3.52 µM; in the assay with NCI-H23 lung it was 4.2 µM; in the assay with SF-539 CNS, 3.91 µM; in the assay on SR leukemia, 5.53 µM; with SK-MEL-2 melanoma it was 3.56 µM. Further, the TGI in the assay with PC-3 prostate came to 5.64 µM; in the assay with SK-MEL-28 melanoma, 3.28 µM; with HCT-116 colon, 3.8 µM; in the assay on HS 578T breast, 4.88 µM.
For the compound `CCCCc1n(Cc2ccc3ccccc3n2)cc[n+]1Cc1ccc2ccccc2c1`, the GI50 was 0.559 µM with SK-MEL-5 melanoma; 0.643 µM with MALME-3M melanoma; 0.508 µM with NCI-H23 lung; 0.916 µM in the assay on SF-539 CNS; 0.456 µM in the assay with SR leukemia; 0.977 µM with SK-MEL-2 melanoma. The GI50 is 0.786 µM in the assay on PC-3 prostate, 0.798 µM with SK-MEL-28 melanoma, 0.639 µM with HCT-116 colon and 1.33 µM with HS 578T breast. Further, the TGI in the assay with SK-MEL-5 melanoma is 1.33 µM; with MALME-3M melanoma it was 2.21 µM; with NCI-H23 lung it was 3.98 µM; with SF-539 CNS, 3.05 µM; in the assay with SR leukemia it was 1.95 µM; in the assay with SK-MEL-2 melanoma, 2.64 µM. In addition, the TGI in the assay with PC-3 prostate worked out at 2.5 µM; in the assay on SK-MEL-28 melanoma it was 2.59 µM; in the assay with HCT-116 colon it was 2.11 µM; with HS 578T breast, 4.07 µM.
As for `Cn1c(=S)c2[nH]c(SCc3cccnc3)nc2n(C)c1=O`, the TGI with SK-MEL-5 melanoma, in the assay with MALME-3M melanoma, in the assay with NCI-H23 lung, with SF-539 CNS, in the assay with SR leukemia and in the assay with SK-MEL-2 melanoma was more than 100 µM in each case. Also, the TGI in the assay with PC-3 prostate, in the assay with SK-MEL-28 melanoma, with HCT-116 colon and with HS 578T breast was more than 100 µM each time.
On to `COc1cc2c3c(n(CCCN=[N+]=[N-])c(=O)c2cc1OC)-c1ccc(NC(C)=O)cc1C3=O`, for which the GI50 was 11.2 µM in the assay with SK-MEL-5 melanoma; more than 50 µM with MALME-3M melanoma; more than 50 µM with NCI-H23 lung; more than 50 µM in the assay on SF-539 CNS; 4.85 µM in the assay with SR leukemia; more than 50 µM with SK-MEL-2 melanoma. Moreover, the GI50 in the assay with PC-3 prostate, in the assay on SK-MEL-28 melanoma, with HCT-116 colon and in the assay with HS 578T breast was more than 50 µM each time. In addition, the TGI with SK-MEL-5 melanoma, with MALME-3M melanoma, in the assay on NCI-H23 lung, in the assay on SF-539 CNS, in the assay on SR leukemia and with SK-MEL-2 melanoma was more than 50 µM in each case. Also, the TGI in the assay on PC-3 prostate, in the assay with SK-MEL-28 melanoma, in the assay with HCT-116 colon and in the assay on HS 578T breast was more than 50 µM in each case.
In the case of `CC[C@H](C)C(=O)O[C@H]1C[C@@H](C)C=C2C=C[C@H](C)[C@H](CC[C@@H]3C[C@@H](O)CC(=O)O3)[C@H]21`, the GI50 in the assay on SK-MEL-5 melanoma was 10.7 µM and 2.97 µM; in the assay on MALME-3M melanoma it was 14.1 µM and 15.2 µM; in the assay on NCI-H23 lung, 5.37 µM and 8.14 µM; in the assay on SR leukemia, 3 µM and 3.5 µM; with SK-MEL-2 melanoma, 1.7 µM and 1.12 µM; in the assay with PC-3 prostate it was 0.967 µM and 1.76 µM. Further, the GI50 was 14.4 µM and 10.4 µM in the assay with SK-MEL-28 melanoma; 3.77 µM and 2.05 µM with HCT-116 colon; 5.08 µM and 5.36 µM in the assay with HS 578T breast. Also, the TGI with SK-MEL-5 melanoma is > 100 µM and 10.7 µM and 16.1 µM; in the assay on MALME-3M melanoma it was > 100 µM and 31.6 µM and > 30 µM; with SR leukemia, 17.3 µM and 25.4 µM and > 30 µM; in the assay on SK-MEL-2 melanoma, 8.32 µM and 9.48 µM and > 30 µM; with PC-3 prostate, more than 100 µM; in the assay on SK-MEL-28 melanoma, > 100 µM and 27.1 µM and > 30 µM. Also, the TGI in the assay with HCT-116 colon is 24.5 µM and 16.2 µM; with HS 578T breast, more than 100 µM.

Values taken from PubChem BioAssay (NCI).
